# Target: Mu-type opioid receptor (Rattus norvegicus) (UniProt P33535)
# Assay: Binding affinity of compound in competition with [3H]- CTOP in Opioid receptor mu 1 binding to rat brain membrane at 10000 nM
# Sequence of Mu-type opioid receptor (Rattus norvegicus) (P33535 whole entry): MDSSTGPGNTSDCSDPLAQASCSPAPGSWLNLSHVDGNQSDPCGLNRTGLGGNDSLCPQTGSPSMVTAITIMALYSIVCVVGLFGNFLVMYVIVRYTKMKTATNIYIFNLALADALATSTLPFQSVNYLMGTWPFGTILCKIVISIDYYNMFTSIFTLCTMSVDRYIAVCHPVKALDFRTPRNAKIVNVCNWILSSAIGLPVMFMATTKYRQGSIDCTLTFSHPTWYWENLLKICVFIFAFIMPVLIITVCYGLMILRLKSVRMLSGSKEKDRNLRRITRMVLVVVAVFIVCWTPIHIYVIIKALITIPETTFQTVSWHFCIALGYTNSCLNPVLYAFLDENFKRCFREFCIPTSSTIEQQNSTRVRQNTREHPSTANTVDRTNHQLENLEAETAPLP
structure (smiles),measurement,value
C[C@@H](O)[C@H](NC(=O)[C@@H]1NC(=O)[C@H](CCCCN)NC(=O)C(Cc2c[nH]c3ccccc23)NC(=O)[C@H](Cc2ccc(O)cc2)NC(=O)[C@@H](NC(=O)[C@@H](N)Cc2ccccc2)CSSC1(C)C)C(N)=O (stereo in doubt),inhibition,18%
